Measured values reported in ChEMBL document CHEMBL5150075 (J Med Chem, 2022).
pIC50: −log10 of the molar value. Active and inactive are the calls of the source. The rule behind the calls is not given here.

How the values were obtained:
DU-145 [1] = assay: Antitumor activity against human DU-145 cells xenografted in BALB/c nude mouse assessed as tumor growth inhibition at 10 mg/kg, po administered once daily and measured twice a week relative to control; type: functional; settings: read-out: TGI
DU-145 [2] = assay: Induction of apoptosis in human DU-145 cells assessed as late apoptotic cells at 0.03 uM incubated for 48 hrs by Annexin V-FITC/PI staining based flow cytometry analysis (reference value: 2.05%); type: functional
Tubulin (Homo sapiens) [3] = molecular target: T1, Tubulin (Homo sapiens) (UniProt P68371+Q9H4B7+P0DPH7+P68366+Q13509+Q71U36+P04350+Q3ZCM7+P07437+P68363+Q9BQE3+Q6PEY2+Q13885+Q9BVA1+Q9BUF5); assay: Disruption of microtubule network in human DU-145 cells assessed as cell shrinkage at 0.1 uM incubated for 16 hrs by Hoechst staining based confocal microscopy analysis
[4] = Cmax in Kunming mouse at 20 mg/kg, po by LC-MS/MS analysis; type: ADME, organism-based; set-up: dose 20 mg/kg, route po; settings: in vivo
[5] = Selectivity index, ratio of IC50 for cytotoxicity against African green monkey Vero cells to IC50 for antiproliferative activity against human DU-145 cells; type: toxicity, cell-based; settings: Vero cells and DU-145 cells, read-out: Ratio IC50
HCT-116 = assay: cells; settings: Homo sapiens, HCT-116, 72 h
Description: Antiproliferative activity against human HCT-116 cells assessed as inhibition of cell growth incubated for 72 hrs by MTT assay

NCI-H1299 = assay: Antitumor activity against human NCI-H1299 cells xenografted in BALB/c nude mouse assessed as suppression of tumor growth at 20 mg/kg, po administered once daily and measured twice a week relative to control; type: functional
[6] = Toxicity in po dosed ICR mouse assessed as maximum tolerated dose measured on day 14; type: organism-based; settings: in vivo, time 14 day
Tubulin (Homo sapiens) [7] = molecular target: T1, Tubulin (Homo sapiens); assay: Inhibition of [3H]colchicine binding to tubulin (unknown origin) at 1 uM incubated for 2 hrs by TopCount scintillation counting method relative to control; type: protein-complex assay
B16-F10 [8] = assay: Antitumor activity against mouse B16-F10 cells implanted in C57BL/6 mouse assessed as tumor growth inhibition at 20 mg/kg, po administered once daily and measured twice a week relative to control; type: functional; settings: read-out: TGI
Bos taurus = species on record: Bos taurus; assay: Inhibition of bovine brain tubulin polymerization measured every 30 secs by absorbance based analysis; settings: dose 1-10 µM, time 30.0 sec, DDE = dose-dependent effect
[9] = Resistance index, ratio of IC50 for antiproliferative activity against paclitaxel-resistant human MCF7R cells to IC50 for antiproliferative activity against human MCF7 cells; type: functional
MDA-MB-231 = assay: cells; settings: Homo sapiens, MDA-MB-231, 72 h
[10] = Stability in rat liver microsomes assessed as half life incubated in presence of NADPH by LC-MS/MS analysis; type: ADME, Microsome
HGC-27 = assay: Antiproliferative activity against human HGC-27 cells assessed as inhibition of cell growth incubated for 72 hrs by MTT assay; type: functional, cell-based; settings: HGC-27, 72 h
[11] = Stability in dog liver microsomes assessed as half life incubated in presence of NADPH by LC-MS/MS analysis; type: ADME, Canis lupus familiaris, Microsome
A549 = assay: Antitumor activity against paclitaxel-resistant human A549 cells xenografted in BALB/c nude mouse assessed as tumor growth inhibition at 20 mg/kg, po administered once daily and measured twice a week relative to control; type: functional; settings: read-out: TGI
[12] = AUC (0 to t) in Kunming mouse at 20 mg/kg, po by LC-MS/MS analysis; type: ADME, organism-based; set-up: dose 20 mg/kg, route po; settings: in vivo
DU-145 [13] = assay: Induction of apoptosis in human DU-145 cells assessed as early apoptotic cells at 0.3 uM incubated for 48 hrs by Annexin V-FITC/PI staining based flow cytometry analysis (reference value: 1.97%); type: functional
DU-145 [14] = assay: Antitumor activity against human DU-145 cells xenografted in BALB/c nude mouse assessed as tumor growth inhibition at 5 mg/kg, po administered once daily and measured twice a week relative to control; type: functional; settings: read-out: TGI
NCI-H1437 = assay: Antiproliferative activity against human NCI-H1437 cells assessed as inhibition of cell growth incubated for 72 hrs by MTT assay; type: functional, cell-based; settings: NCI-H1437, 72 h
[15] = AUC (0 to t) in Kunming mouse at 2 mg/kg, iv by LC-MS/MS analysis; type: ADME, organism-based; set-up: dose 2 mg/kg, route iv; settings: in vivo
HCT-8 = assay: Antiproliferative activity against human HCT-8 cells assessed as inhibition of cell growth incubated for 72 hrs by MTT assay; type: functional, cell-based; settings: HCT-8, 72 h
DU-145 [16] = assay: Induction of apoptosis in human DU-145 cells assessed as early apoptotic cells at 0.1 uM incubated for 48 hrs by Annexin V-FITC/PI staining based flow cytometry analysis (reference value: 1.97%); type: functional
SW1990 = assay: Antiproliferative activity against human SW1990 cells assessed as inhibition of cell growth incubated for 72 hrs by MTT assay; type: functional, cell-based; settings: SW1990, 72 h
[17] = Tmax in Kunming mouse at 20 mg/kg, po by LC-MS/MS analysis; type: ADME, organism-based; settings: in vivo
[18] = Resistance index, ratio of IC50 for antiproliferative activity against paclitaxel-resistant human A549 cells to IC50 for antiproliferative activity against human A549 cells; type: functional
[19] = Toxicity in specific pathogen-free Kunming mouse assessed as pathological changes in kidney at 10 mg/kg, po administered once daily and measured after 7 days by hematoxylin and eosin staining based analysis; type: organism-based; settings: in vivo, 168 h, time 7 day
DU-145 [20] = assay: Induction of apoptosis in human DU-145 cells assessed as late apoptotic cells at 0.1 uM incubated for 48 hrs by Annexin V-FITC/PI staining based flow cytometry analysis (reference value: 2.05%); type: functional
NCI-H460 = assay: cells; settings: Homo sapiens, NCI-H460, 72 h
Description: Antiproliferative activity against human NCI-H460 cells assessed as inhibition of cell growth incubated for 72 hrs by MTT assay

B16-F10 [21] = assay: Antiproliferative activity against mouse B16-F10 cells assessed as inhibition of cell growth incubated for 72 hrs by MTT assay; type: functional, cell-based; settings: B16-F10, 72 h
DU-145 [22] = assay: Induction of apoptosis in human DU-145 cells assessed as live cells at 0.03 uM incubated for 48 hrs by Annexin V-FITC/PI staining based flow cytometry analysis (reference value: 94.94%); type: functional
DU-145 [23] = assay: Antiproliferative activity against human DU-145 cells assessed as inhibition of cell growth incubated for 24 hrs by real-time cell analysis; type: functional, cell-based; settings: DU-145, 24 h
DU-145 [24] = assay: Induction of apoptosis in human DU-145 cells assessed as dead cells at 0.3 uM incubated for 48 hrs by Annexin V-FITC/PI staining based flow cytometry analysis (reference value: 1.05%); type: functional
[25] = molecular target: L-type calcium channel alpha-1c/beta-2/alpha2delta-1 (Homo sapiens, UniProt P54289+Q08289+Q13936); assay: Inhibition of human alpha1c/beta2a/alpha2delta1 Cav1.2 expressed in HEK293 cells assessed as effect on calcium flux by FLIPR analysis; type: toxicity, cell-based
[26] = Toxicity in BALB/c nude mouse xenografted with human DU-145 cells assessed as reduction in body weight at 10 mg/kg, po administered once daily and measured twice a week; type: organism-based; set-up: scale not given: the % may be the effect or the level left; settings: in vivo

L-type calcium channel alpha-1c/beta-2/alpha2delta-1, sequence (P54289 25-956 limits assumed): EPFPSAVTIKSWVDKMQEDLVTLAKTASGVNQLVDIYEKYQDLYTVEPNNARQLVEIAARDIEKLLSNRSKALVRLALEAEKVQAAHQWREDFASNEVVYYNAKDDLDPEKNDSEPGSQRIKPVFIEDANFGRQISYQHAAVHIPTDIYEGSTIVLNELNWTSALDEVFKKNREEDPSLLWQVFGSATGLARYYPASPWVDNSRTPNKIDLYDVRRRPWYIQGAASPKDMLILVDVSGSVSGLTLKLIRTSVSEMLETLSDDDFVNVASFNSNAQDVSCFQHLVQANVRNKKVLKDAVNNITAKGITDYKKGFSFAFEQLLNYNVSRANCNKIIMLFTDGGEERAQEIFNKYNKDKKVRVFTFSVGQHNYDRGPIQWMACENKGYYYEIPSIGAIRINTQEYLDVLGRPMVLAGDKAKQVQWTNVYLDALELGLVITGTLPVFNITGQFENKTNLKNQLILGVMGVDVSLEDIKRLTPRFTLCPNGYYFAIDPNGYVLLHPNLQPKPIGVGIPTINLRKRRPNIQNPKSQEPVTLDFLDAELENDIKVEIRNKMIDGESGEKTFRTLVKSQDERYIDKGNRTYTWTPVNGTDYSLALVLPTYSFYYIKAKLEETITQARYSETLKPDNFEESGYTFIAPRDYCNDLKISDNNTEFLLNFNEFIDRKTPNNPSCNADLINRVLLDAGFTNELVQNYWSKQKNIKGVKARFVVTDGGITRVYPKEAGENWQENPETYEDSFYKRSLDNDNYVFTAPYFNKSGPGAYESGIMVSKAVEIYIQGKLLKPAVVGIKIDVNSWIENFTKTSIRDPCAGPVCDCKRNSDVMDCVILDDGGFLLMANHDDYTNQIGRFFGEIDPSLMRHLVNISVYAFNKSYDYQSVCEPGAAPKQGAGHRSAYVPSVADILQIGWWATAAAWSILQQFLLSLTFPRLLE
L-type calcium channel alpha-1c/beta-2/alpha2delta-1, sequence (P54289 957-1103 limits assumed): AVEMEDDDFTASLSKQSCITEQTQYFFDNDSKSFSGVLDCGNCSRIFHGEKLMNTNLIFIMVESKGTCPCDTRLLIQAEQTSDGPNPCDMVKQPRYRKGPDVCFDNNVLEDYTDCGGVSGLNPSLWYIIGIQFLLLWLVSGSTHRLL
L-type calcium channel alpha-1c/beta-2/alpha2delta-1, sequence (Q08289 whole entry): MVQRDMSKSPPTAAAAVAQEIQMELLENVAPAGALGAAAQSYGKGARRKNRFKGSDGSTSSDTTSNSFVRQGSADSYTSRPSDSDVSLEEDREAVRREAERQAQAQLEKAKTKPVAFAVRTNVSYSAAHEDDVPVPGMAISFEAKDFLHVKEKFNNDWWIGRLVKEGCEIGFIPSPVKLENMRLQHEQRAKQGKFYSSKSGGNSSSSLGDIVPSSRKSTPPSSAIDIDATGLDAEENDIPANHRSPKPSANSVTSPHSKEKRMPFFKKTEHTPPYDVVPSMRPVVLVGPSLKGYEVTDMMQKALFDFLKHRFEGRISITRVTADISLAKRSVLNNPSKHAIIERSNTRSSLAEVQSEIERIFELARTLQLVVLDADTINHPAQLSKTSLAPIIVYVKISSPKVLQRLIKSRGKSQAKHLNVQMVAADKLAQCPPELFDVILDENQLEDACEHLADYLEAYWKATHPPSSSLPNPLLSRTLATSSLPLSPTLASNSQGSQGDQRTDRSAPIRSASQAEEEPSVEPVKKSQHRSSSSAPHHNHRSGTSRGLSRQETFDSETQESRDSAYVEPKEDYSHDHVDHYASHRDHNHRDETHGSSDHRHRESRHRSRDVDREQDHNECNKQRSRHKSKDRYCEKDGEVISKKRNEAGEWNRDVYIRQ
L-type calcium channel alpha-1c/beta-2/alpha2delta-1, sequence (Q13936 whole entry): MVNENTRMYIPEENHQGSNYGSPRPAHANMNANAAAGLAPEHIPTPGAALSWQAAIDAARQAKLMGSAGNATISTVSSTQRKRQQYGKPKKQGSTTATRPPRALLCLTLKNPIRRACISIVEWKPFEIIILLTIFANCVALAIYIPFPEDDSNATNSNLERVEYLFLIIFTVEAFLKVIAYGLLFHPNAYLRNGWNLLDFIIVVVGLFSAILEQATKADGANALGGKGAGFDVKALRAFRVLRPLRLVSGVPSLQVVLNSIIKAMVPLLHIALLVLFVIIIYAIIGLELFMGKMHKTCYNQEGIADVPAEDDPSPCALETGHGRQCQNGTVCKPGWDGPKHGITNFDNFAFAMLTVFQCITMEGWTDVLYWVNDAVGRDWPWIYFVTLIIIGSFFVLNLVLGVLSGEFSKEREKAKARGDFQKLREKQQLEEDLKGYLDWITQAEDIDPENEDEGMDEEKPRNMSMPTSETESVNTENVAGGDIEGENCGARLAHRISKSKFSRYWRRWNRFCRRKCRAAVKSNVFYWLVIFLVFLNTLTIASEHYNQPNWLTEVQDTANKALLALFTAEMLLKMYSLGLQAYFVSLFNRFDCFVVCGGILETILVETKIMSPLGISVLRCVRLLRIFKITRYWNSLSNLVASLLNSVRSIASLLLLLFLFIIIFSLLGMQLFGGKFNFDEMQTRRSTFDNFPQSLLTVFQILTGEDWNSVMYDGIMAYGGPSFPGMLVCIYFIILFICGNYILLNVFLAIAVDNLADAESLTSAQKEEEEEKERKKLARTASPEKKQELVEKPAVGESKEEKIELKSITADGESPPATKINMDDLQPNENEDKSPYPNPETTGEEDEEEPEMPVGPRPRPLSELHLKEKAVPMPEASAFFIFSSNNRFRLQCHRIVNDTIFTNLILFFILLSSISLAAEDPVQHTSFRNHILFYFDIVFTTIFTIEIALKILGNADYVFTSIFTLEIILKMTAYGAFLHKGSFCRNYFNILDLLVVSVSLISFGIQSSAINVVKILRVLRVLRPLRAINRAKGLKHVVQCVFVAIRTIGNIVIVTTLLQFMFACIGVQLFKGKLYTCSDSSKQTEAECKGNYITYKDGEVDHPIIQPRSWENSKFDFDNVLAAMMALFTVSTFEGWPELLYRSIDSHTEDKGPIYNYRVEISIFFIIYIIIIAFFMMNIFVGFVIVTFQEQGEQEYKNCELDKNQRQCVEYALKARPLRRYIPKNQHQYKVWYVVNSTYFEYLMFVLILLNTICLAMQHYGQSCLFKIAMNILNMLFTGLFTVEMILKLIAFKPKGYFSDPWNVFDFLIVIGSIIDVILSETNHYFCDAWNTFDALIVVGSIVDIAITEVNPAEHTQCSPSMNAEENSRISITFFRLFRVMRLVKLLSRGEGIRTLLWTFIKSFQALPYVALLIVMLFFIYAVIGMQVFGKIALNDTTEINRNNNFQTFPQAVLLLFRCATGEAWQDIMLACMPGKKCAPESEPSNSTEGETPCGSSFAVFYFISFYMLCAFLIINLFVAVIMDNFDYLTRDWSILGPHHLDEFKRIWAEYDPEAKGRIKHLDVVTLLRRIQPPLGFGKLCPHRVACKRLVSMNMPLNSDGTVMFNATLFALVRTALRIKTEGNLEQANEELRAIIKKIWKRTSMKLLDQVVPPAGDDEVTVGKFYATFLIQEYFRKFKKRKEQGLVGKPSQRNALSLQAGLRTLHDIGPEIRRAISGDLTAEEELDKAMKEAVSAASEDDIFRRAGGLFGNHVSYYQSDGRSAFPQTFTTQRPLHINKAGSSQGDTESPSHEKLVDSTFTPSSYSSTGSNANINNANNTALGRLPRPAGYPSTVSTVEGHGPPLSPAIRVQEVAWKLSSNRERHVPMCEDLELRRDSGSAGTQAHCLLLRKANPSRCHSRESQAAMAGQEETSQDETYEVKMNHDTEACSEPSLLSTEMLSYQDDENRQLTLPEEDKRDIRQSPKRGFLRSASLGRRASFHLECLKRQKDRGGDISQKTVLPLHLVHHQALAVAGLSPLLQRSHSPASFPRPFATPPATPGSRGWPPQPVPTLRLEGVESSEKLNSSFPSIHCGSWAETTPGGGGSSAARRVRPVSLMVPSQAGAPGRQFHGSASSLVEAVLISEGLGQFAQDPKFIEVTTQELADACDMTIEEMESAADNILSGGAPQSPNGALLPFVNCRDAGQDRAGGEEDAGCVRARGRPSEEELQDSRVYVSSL

Cc1ccc(S(=O)(=O)Nc2cc(C(=O)NCc3ccc(C)nc3)ccc2C)cc1
inhibition in vivo at 10 mg/kg (DU-145 [1]): 62.8% | Activity (DU-145 [2]): 9.5% | Activity (Tubulin (Homo sapiens) [3]): Active | Cmax [4]: 2740 ng/mL | selectivity ratio [5]: 4 | pIC50 (HCT-116): 8.40 | Activity (NCI-H1299): 73.6% | MTD at 336 h [6]: > 60 mg/kg | inhibition (Tubulin (Homo sapiens) [7]): 75% | inhibition in vivo at 20 mg/kg (B16-F10 [8]): 70.6% | inhibition (Bos taurus): Dde | Ratio IC50 [9]: 2.48 | pIC50 (MDA-MB-231): 8.05 | half-life [10]: 2.3 min | pIC50 (HGC-27): 8.22 | half-life [11]: 132 min | inhibition in vivo at 20 mg/kg (A549): 74.8% | AUC(0-t) [12]: 2580 ng·h/mL | Activity (DU-145 [13]): 26.3% | inhibition in vivo at 5 mg/kg (DU-145 [14]): 37.4% | pIC50 (NCI-H1437): 8.70 | AUC(0-t) [15]: 534 ng·h/mL | pIC50 (HCT-8): 7.66 | Activity (DU-145 [16]): 24.79% | pIC50 (SW1990): 7.82 | Tmax [17]: 4.98 min | Ratio IC50 [18]: 1.2 | Activity [19]: Non-Toxic | Activity (DU-145 [20]): 26.61% | pIC50 (NCI-H460): 7.11 | pIC50 (B16-F10 [21]): 8.70 | Activity (DU-145 [22]): 73.88% | pIC50 (DU-145 [23]): 8.00 | Activity (DU-145 [24]): 5.51% | pIC50 [25]: < 4.52 | Activity [26]: 3.5%
